Test results from patent EP2326714B1, “METHOD FOR THE PRODUCTION OF A FEED ADDITIVE FOR THE OXYGEN-INDEPENDENT, ENZYMATIC DECOMPOSITION OF MYCOTOXINS, FEED ADDITIVE, AND USE THEREOF” (Erber Aktiengesellschaft, priority 2008, dated 2010).

Legend:
[1] = biological target: T1, Fumonisin-Carboxylesterase FumD, Sequenz ID-Nr. 9 (fumD Gen Sequenz ID-Nr. 8), Sphingopyxis sp. Stamm DSM 16254, his-getaggt, in Pichia pastoris exprimiert (Sphingopyxis macrogoltabida, UniProt D2D3B6); experiment: Enzyme kinetics of fumonisin carboxylesterase (Michaelis-Menten, HPLC-MS/MS); type: biochemical; conditions: substrate FB1; enzyme 0,33 ng/ml; Tris-Cl pH 8,0; 30 °C
T1 construct: His tag; made in house; host or cells: Pichia pastoris (secreted, purified from the culture supernatant)
Procedure: (§1) Das fumD Gen (Sequenz ID-Nr. 8), welches eine Fumonisin-Carboxylesterase codiert, wurde kloniert und in Pichia pastoris unter Verwendung von Standardverfahren exprimiert. Das his-getaggte Enzym wurde rückgewonnen und aus der überstehenden Lösung der Kultur durch Affinitätschromatographie gereinigt. Die Enzymkonzentration wurde bestimmt und die enzymkinetischen Parameter wurden mit sieben unterschiedlichen Substratkonzentrationen im Bereich zwischen 50 µg bis 25 mg FB1 pro Liter und einer Enzymkonzentration von 0,33 ng/ml bestimmt. Die Reaktionen wurden in 20 mM Tris-Cl (pH 8,0) Puffer mit 0,1 mg/ml Rinderserumalbumin gepuffert und bei 30 °C inkubiert. Proben wurden nach 0, 30, 60 120 und 240 Minuten Inkubation genommen und durch HPLC-MS/MS analysiert. Fumonisin B1 (FB1) und hydrolysiertes Fumonisin B1 wurden quantifiziert basierend auf einer Kalibrierung mit den gereinigten Referenzsubstanzen und einem vollständig ^13C markierten, internen FB1 Standard.
(§2) Fig. 2 zeigt die Michaelis-Menten-Kurve für die Transformation von Fumonisin B1 (FB1) durch Fumonisin-Carboxylesterase FumD, welche bei einer Enzymkonzentration von 0,33 ng/ml in Tris-Cl-Puffer (pH 8,0) bestimmt wurde, wobei anfängliche Enzymgeschwindigkeiten gegen die Substratkonzentration aufgetragen wurden. Die Michaelis-Menten-Kurve zeigt einen Abfall bei höheren Substratkonzentrationen, da die Enzymgeschwindigkeit basierend auf dem Produkt, d.h. hydrolysierter FB1-Bildung berechnet wurde. Da hydrolysiertes FB1 aus FB1 in einer zweistufigen Reaktion über partiell hydrolysiertes FB1 mit lediglich einer Tricarballylsäure-Seitenkette, die zurückbehalten wurde, und einer Seitenkette ausgebildet wird, die abgespalten wurde, war die Endproduktbildung bei hohen Substratkonzentrationen verzögert. Die Michaelis-Menten-Konstante KM wurde als 0,90 µmol/l berechnet, was 650 ppb äquivalent ist, und die Umwandlungszahl war 900 pro Sekunde.

[2] = system: Absetzferkel; experiment: Feeding trial with piglets (fumonisin B1 contaminated feed, positive control); type: in vivo, Ferkel (ÖHYB); conditions: 4 - 5,5 ppm Fumonisin B1 in feed, no enzyme
Text: Der Versuch wurde in einem Versuchsstall mit 12 Buchten für jeweils 10 Tiere durchgeführt. Der Stall war ausgestattet mit Spaltenboden, Schalentränkern und einem computergesteuerten Fütterungssystem. Die Automaten waren entlang der Buchtenwände angeordnet. Das Stallklima wurde täglich automatisch aufgezeichnet und die Temperatur nach den Standardempfehlungen zur Ferkelaufzucht eingestellt.
120 gemischt-geschlechtliche Absetzferkel (Alter: ca. 4 Wochen, durchschnittliches Einstellgewicht 8,21 kg) wurden für diesen Versuch eingesetzt. Jedes Ferkel wurde mit einer Ohrmarke versehen und einzeln gewogen. Die 120 Ferkel wurden auf 12 Buchten zufällig verteilt. Alle Ferkel entstammten dem österreichischen Zuchtprogramm ÖHYB (= (Edelschwein x Landrasse) x Pietrain).
Direkt nach dem Absetzen wurden die Ferkel für 2 Tage mit einem Starterfutter gefüttert, nach dieser Eingewöhnungsphase erfolgte die Umstellung auf das Versuchsfutter. Die Fütterung erfolgte 2-phasig: Absetzphase Tag 1 - 14, Aufzuchtphase Tag 15 - 42. Das Versuchsfutter wurde buchtenindividuell über die Spotmix-Fütterungsanlage gemischt und je nach Anzahl der Ferkel, Gewichtsentwicklung und Futterverzehr zweimal täglich trocken zugeteilt. Wasser stand zur Aufnahme ad libitum zur Verfügung. Die 12 Buchten wurden in vier verschiedene Applikationsgruppen zu je drei Wiederholungen geteilt und erhielten die folgenden Einmischungen ins oben beschriebene Futter: […]

[3] = system: CCCC[C@@H](C)[C@@H](OC(=O)C[C@@H](CC(=O)O)C(=O)O)[C@H](C[C@@H](C)C[C@H](O)CCCC[C@@H](O)C[C@H](O)[C@H](C)N)OC(=O)C[C@@H](CC(=O)O)C(=O)O; experiment: Enzyme kinetics of fumonisin carboxylesterase (Michaelis-Menten, HPLC-MS/MS); type: biochemical, Sphingopyxis sp.
Procedure: as §1, §2

T1 sequence (D2D3B6 whole entry): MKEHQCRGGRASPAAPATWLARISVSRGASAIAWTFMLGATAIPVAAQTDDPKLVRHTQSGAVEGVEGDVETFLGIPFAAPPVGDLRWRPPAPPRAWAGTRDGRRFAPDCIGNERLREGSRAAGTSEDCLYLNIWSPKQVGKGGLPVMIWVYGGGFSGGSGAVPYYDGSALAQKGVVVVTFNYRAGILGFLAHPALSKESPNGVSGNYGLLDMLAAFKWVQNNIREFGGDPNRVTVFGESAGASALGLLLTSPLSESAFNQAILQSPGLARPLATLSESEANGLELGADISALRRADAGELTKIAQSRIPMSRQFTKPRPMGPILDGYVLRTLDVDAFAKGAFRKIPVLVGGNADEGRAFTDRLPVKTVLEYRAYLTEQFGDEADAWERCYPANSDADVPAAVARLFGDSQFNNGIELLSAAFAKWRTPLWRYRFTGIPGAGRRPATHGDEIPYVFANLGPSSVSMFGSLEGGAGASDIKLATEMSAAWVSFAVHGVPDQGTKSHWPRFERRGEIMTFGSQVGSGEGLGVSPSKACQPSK

Q: Which results are given for `CCCC[C@@H](C)[C@@H](OC(=O)C[C@@H](CC(=O)O)C(=O)O)[C@H](C[C@@H](C)C[C@H](O)CCCC[C@@H](O)C[C@H](O)[C@H](C)N)OC(=O)C[C@@H](CC(=O)O)C(=O)O` [Fumonisin B1]?
A: Umwandlungszahl [1]: 900 pro Sekunde; Ausfälle ([2]; 30 piglets, 42 days): 1; Endgewicht (Durchschnitt, kg) ([2]; 30 piglets, 42 days, negative control 26,82): 24,77 kg; respiratorische Probleme ([2]; all other groups appeared healthy): bei fast der Hälfte der Tiere respiratorische Probleme beobachtet

Q: How did the Km ([3]; other: same KM expressed in ppb, pH 8.0, 30.0 °C) turn out when “Fumonisin-Carboxylesterase FumD, Sequenz ID-Nr. 9 (fumD Gen Sequenz ID-Nr. 8), Sphingopyxis sp. Stamm DSM 16254, his-getaggt, in Pichia pastoris exprimiert (Sphingopyxis macrogoltabida)” was run?
A: 650 ppb

Q: And the Km ([3]; other: substrate FB1, 50 µg to 25 mg per litre, enzyme 0,33 ng/ml, 20 mM Tris-Cl pH 8,0, 0,1 mg/ml BSA, 30 °C, rate based on formation of hydrolysed FB1)?
A: 0,90 µmol/l
